In ChEMBL document CHEMBL1201862, “PubChem BioAssay data set” (2004):
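1) Cells in 96-well plates. 2) Compound, 48 h, 5 concentrations. 3) Linear interpolation between surrounding doses. 4) Unreached endpoint = highest concentration. The concentration for 50% growth inhibition is given as GI50.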 Calls of active or inactive are those of the source. No stated cut-off is given here; in the data, active = GI50 up to about 1.1 µM and inactive = higher.

Tests used:
Experiment in all cases: inhibition of tumour cell growth, NCI panel, 48 h
IGROV-1 = tested on: IGROV-1
NCI-H522 = tested on: NCI-H522
NCI-H460 = tested on: NCI-H460
MDA-MB-435 = tested on: MDA-MB-435
OVCAR-8 = tested on: OVCAR-8
SN12C = tested on: SN12C
KM-20L2 = tested on: KM-20L2
SNB-75 = tested on: SNB-75
T47D = tested on: T47D
HCC 2998 = tested on: HCC 2998
RPMI-8226 = tested on: RPMI-8226
HCT-116 = tested on: HCT-116
RXF 393 = tested on: RXF 393
HCT-15 = tested on: HCT-15
NCI-H226 = tested on: NCI-H226
SK-MEL-5 = tested on: SK-MEL-5
K562 = tested on: K562
Hs-578T = tested on: Hs-578T
NCI-H23 = tested on: NCI-H23
UACC-257 = tested on: UACC-257

Row | Structure (SMILES) | GI50 (IGROV-1) | GI50 (NCI-H522) | GI50 (NCI-H460) | GI50 (MDA-MB-435) | GI50 (OVCAR-8) | GI50 (SN12C) | GI50 (KM-20L2) | GI50 (SNB-75) | GI50 (T47D) | GI50 (HCC 2998) | GI50 (RPMI-8226) | GI50 (HCT-116) | GI50 (RXF 393) | GI50 (HCT-15) | GI50 (NCI-H226) | GI50 (SK-MEL-5) | GI50 (K562) | GI50 (Hs-578T) | GI50 (NCI-H23) | GI50 (UACC-257)
1 | O=C(O)CC(NC(=O)CP(=O)(O)O)C(=O)O (centres undefined) | 335 µM (inactive) | 1650 µM (inactive) | 25.4 µM (inactive) | 37.6 µM (inactive) | 149 µM (inactive) | 724 µM (inactive) | 158 µM (inactive) | 6080 µM (inactive) | 1290 µM (inactive) | 7930 µM (inactive) | 244 µM (inactive) | 21.5 µM (inactive) | 249 µM (inactive) | 146 µM | 2280 µM (inactive) | 101 µM (inactive) | 94.8 µM (inactive) | 3640 µM (inactive) | 2800 µM (inactive) | –
2 | O=C1C(Cl)=C(Cl)C(=O)N1c1ccc(F)cc1 [FLUOROIMIDE] | 18.6 µM (inactive) | 3.81 µM (inactive) | > 83.6 µM (inactive) | 17.9 µM (inactive) | 21.1 µM (inactive) | 19.1 µM (inactive) | 22.1 µM (inactive) | 12.8 µM (inactive) | 17.8 µM (inactive) | 19.6 µM (inactive) | 15.1 µM (inactive) | 26 µM (inactive) | 22.5 µM (inactive) | 16.2 µM | 42.7 µM (inactive) | 38.3 µM (inactive) | 5.11 µM (inactive) | 28.1 µM (inactive) | 17.5 µM (inactive) | 36.1 µM (inactive)
3 | CCSc1nc(N2CCCC2)s[s+]1.[O-][Cl+3]([O-])([O-])[O-] | 4.07 µM (inactive) | 0.346 µM (active) | 0.225 µM (active) | 13.6 µM (inactive) | 39.3 µM (inactive) | 46.1 µM (inactive) | 55.6 µM (inactive) | 24.3 µM (inactive) | – | 73.6 µM (inactive) | 0.318 µM (active) | 28.4 µM (inactive) | 30.9 µM (inactive) | 27.4 µM | 63.4 µM (inactive) | 0.08 µM (active) | 1 µM (active) | 40.6 µM (inactive) | 46.8 µM (inactive) | 36.9 µM (inactive)
4 | O=C1[C@H]2ON(c3ccccc3)C(c3cccc([N+](=O)[O-])c3)[C@H]2C(=O)N1c1ccc(Cc2ccc(N3C(=O)[C@@H]4ON(c5ccccc5)C(c5cccc([N+](=O)[O-])c5)[C@@H]4C3=O)cc2)cc1 (some centres undefined) | > 100 µM (inactive) | > 100 µM (inactive) | > 100 µM (inactive) | – | > 100 µM (inactive) | > 100 µM (inactive) | > 100 µM (inactive) | > 100 µM (inactive) | – | > 100 µM (inactive) | > 100 µM (inactive) | > 100 µM (inactive) | > 100 µM (inactive) | > 100 µM | > 100 µM (inactive) | 43.9 µM (inactive) | > 100 µM (inactive) | – | > 100 µM (inactive) | > 100 µM (inactive)
5 | CCCCCC#COC1CC(C)CC[C@@H]1C(C)C (some centres undefined) | 27.7 µM (inactive) | 24.5 µM (inactive) | 23.8 µM (inactive) | – | > 100 µM (inactive) | > 100 µM (inactive) | 61.1 µM (inactive) | 75.9 µM (inactive) | – | > 100 µM (inactive) | 26.4 µM (inactive) | 57.7 µM (inactive) | 36.3 µM (inactive) | > 100 µM | > 100 µM (inactive) | > 100 µM (inactive) | 27.9 µM (inactive) | – | > 100 µM (inactive) | 46.2 µM (inactive)
6 | CCCCc1c2c(nc3c1CCC/C3=C\c1ccccc1)C(=O)C(CN(C)C)CC2 (centres undefined) | 18.3 µM (inactive) | 13.8 µM (inactive) | 17.3 µM (inactive) | 17.2 µM (inactive) | 20.8 µM (inactive) | 20.1 µM (inactive) | 17.8 µM (inactive) | 18.1 µM (inactive) | 3.61 µM (inactive) | 28 µM (inactive) | 4.17 µM (inactive) | 16 µM (inactive) | 16.3 µM (inactive) | 8.97 µM | 22.6 µM (inactive) | 16.9 µM (inactive) | 6.89 µM (inactive) | 17.9 µM (inactive) | 16.5 µM (inactive) | 17 µM (inactive)
7 | CCCN(CCC)c1c([N+](=O)[O-])cc(C(=O)N(CC)CC)cc1[N+](=O)[O-] | 32.3 µM (inactive) | 10.2 µM (inactive) | 15.9 µM (inactive) | – | 18.3 µM (inactive) | 22.4 µM (inactive) | 18.4 µM (inactive) | 21.3 µM (inactive) | – | 37.1 µM (inactive) | 11.9 µM (inactive) | 13.6 µM (inactive) | 17.4 µM (inactive) | 21.4 µM | 23 µM (inactive) | 13.3 µM (inactive) | 12.6 µM (inactive) | – | 7.55 µM (inactive) | 16.3 µM (inactive)
